Test system: C170 xenografts
Assay: Prevention model, C170 xenografts
Type: in vivo
Conditions: SC101/29 0.2 mg ip 3 times weekly; 5-FU/leucovorin 12.5 mg/kg iv; days 12-23; p<0.004 ANOVA alone, p<0.02 combination
Protocol: Prevention model. The colorectal tumour cell line, C170 was maintained in serial passage in nude mice. For therapy the mice were sacrificed and the tumours excised. The tumour was finely minced and 3 mm^2 pieces were implanted, under anaesthetic (Hypnorm, Roche/Hypnovel, Jannsen), subcutaneously, into 40 male mice which had been randomly allocated to 4 experimental groups. A group of mice were treated with 5-FU/leucovorin (12.5 mg/kg) by intravenous (iv) injection on days 1, 3, 5, 7, 21 and 22. Three times weekly mice were also injected intraperitoneally (ip) with 0.2 mg of SC101/29 mAb. Control mice received either SC101/29 mAb, 5-FU/leucovorin or vehicle alone. Tumour size was measured by callipers and tumour cross-sectional area calculated on days 12, 16, 19 and 23. At the termination of the experiment tumours were weighed to assess anti-tumour efficacy. Animals were weighed to assess the toxicity of treatment.

5-FU/leucovorin
tumour growth of freshly explanted C170 tumours (cross-sectional area): inhibition of tumour growth

— patent US20100040620A1, “ANTI-CANCER ANTIBODIES AGAINST LEWISy AND LEWISb ANTIGENS” (priority 2006, published 2010)
